# Tested on: TS mRNA
# Experiment: Inhibition of TS expression by siRNA in DLD-1/5FU cells, Taqman real-time PCR
# Assay type: cell-based, human
# Settings: 72 hours after transfection; for effects of inhibiting TS expression (in words): siRNA 25 nM
# Method: The DLD-1/5FU human colorectal cancer cell lines (Int. J. Oncol., 2000; 17: 277-83) that had been resported to be resistant to 5-FU were cultured in a 6-cm culture dish for 24 hours until the cells reached 50% to 60% confluence.
# Subsequently, siRNA molecules (i.e., TS-siRNA1 molecules (sense strand: SEQ ID NO: 1; antisense strand: SEQ ID NO: 2), TS-siRNA2 molecules (sense strand: SEQ ID NO: 3; antisense strand: SEQ ID NO: 4), and TS-siRNA3 molecules (sense strand: SEQ ID NO: 5; antisense strand: SEQ ID NO: 6)) were chemically synthesized, and 2.5 ml of a solution containing each of the above siRNA molecules (final concentration: 25 nM) and 25 μl of TransIT-TKO Transfection Reagent (Minis) was transfected into the above cells in accordance with a conventional technique. Scrambled siRNA (TS-Scra1) was used as a negative control.
# The effects of siRNA molecules on inhibition of TS expression were inspected via Taqman real-time PCR (ABI PRISM 7700 Sequence Detection System; Applied Biosystems) 72 hours after transfection. The Assays-on-Demand Gene Expression Assay Mix (assay ID Hs00426591_ml; PCR product size: 87 bp; Applied Biosystems) was used for TS primers and probes. GAPDH was used as the internal standard (Assays-on-Demand Gene Expression System; assay ID: Hs99999905_ml; PCR product size: 122 bp; Applied Biosystems).
Substance,"effects on inhibition of TS expression (siRNA final concentration 25 nM, GAPDH internal standard) [%]",effects of inhibiting TS expression (in words)
"TS-siRNA1: chemically synthesized siRNA targeting TS; sense strand SEQ ID NO: 1, antisense strand SEQ ID NO: 2 (sense GUAACACCAUCGAUCAUGA; antisense UCAUGAUCGAUGGUGUUAC; listed as RNA, chemistry not given here)",83.5±1.3,
"TS-siRNA2: chemically synthesized siRNA targeting TS; sense strand SEQ ID NO: 3, antisense strand SEQ ID NO: 4 (sense GAAUACAGAGAUAUGGAAU; antisense AUUCCAUAUCUCUGUAUUC; listed as RNA, chemistry not given here)",,exhibited effects of inhibiting TS expression
"TS-siRNA3: chemically synthesized siRNA targeting TS; sense strand SEQ ID NO: 5, antisense strand SEQ ID NO: 6 (sense CGAUCAUGAUGUAGAGUGU; antisense ACACUCUACAUCAUGAUCG; listed as RNA, chemistry not given here)",,exhibited effects of inhibiting TS expression
